Experimental data from the NIST ThermoML archive (doi:10.1016/j.jct.2006.07.006).
Several values for one entry are separate records, joined by “and”; a condition that tells them apart may be missing. Equal entries are not always repeated. Numbers after ± are expanded uncertainties.

Test: activity coefficient (dimensionless); of the first substance listed, at infinite dilution; xn = mol fraction of the nth substance listed
Conditions: 101 kPa, Liquid, x1 = 0

SMILES	activity coefficient (323.1 K)	activity coefficient (333.5 K)	activity coefficient (344 K)	activity coefficient (354.5 K)	activity coefficient (364.9 K)	activity coefficient (375.4 K)	activity coefficient (386.1 K)	activity coefficient (333.4 K)	activity coefficient (343.9 K)	activity coefficient (354.4 K)	activity coefficient (364.8 K)	activity coefficient (375.2 K)	activity coefficient (386 K)	activity coefficient (396 K)	activity coefficient (301.8 K)	activity coefficient (312.4 K)	activity coefficient (322.9 K)	activity coefficient (333.2 K)	activity coefficient (354.3 K)
CCCCO [butan-1-ol] + CCCCCC[n+]1ccn(C)c1.O=S(=O)([N-]S(=O)(=O)C(F)(F)F)C(F)(F)F	1.99 and 1.98 and 2.06	1.83 [middle of 4 runs]	1.61 [middle of 5 runs]	1.46 [middle of 5 runs]	1.34 [middle of 4 runs]	1.23 and 1.28	1.14 ± 0.12												
CCCCCCO [hexan-1-ol] + CCCCCC[n+]1ccn(C)c1.O=S(=O)([N-]S(=O)(=O)C(F)(F)F)C(F)(F)F								2.57 ± 0.47	2.32 and 2.25 and 2.37	2.14 [middle of 7 runs]	1.95 [middle of 5 runs]	1.8 [middle of 5 runs]	1.67 and 1.69 and 1.7	1.56 ± 0.25					
CO [methanol] + CCCCCC[n+]1ccn(C)c1.O=S(=O)([N-]S(=O)(=O)C(F)(F)F)C(F)(F)F			1 [middle of 4 runs]												1.46 [middle of 4 runs]	1.29 [middle of 5 runs]	1.15 and 1.25 and 1.22	1.1 [middle of 4 runs]	0.87 and 0.93 and 0.9
